Reference: US20220265817A1, “THERAPEUTIC COMPOSITIONS AND METHODS FOR TREATING HEPATITIS B” (priority 2017, published 2022)
Like-named read-outs stand apart in the source and are kept apart here. [UNA] = unlocked nucleic acid; m = 2'-O-methyl; r = 2'-OH (RNA)

Assays:
[1] = tested on: HBV genome; assay: siRNA IC50 (Table A); parameters: species or system Hepatitis B virus
[2] = tested on: D type HBV in primary human hepatocytes; assay: microbe, parasite or virus in culture; assay type: cell-based; conditions: for AVERAGE % INHIBITION: COMPOUND 22 0 nM
Protocol: (§1) The mouse liver perfusion was applied to isolate PHHs. The isolated hepatocytes were further purified by Percoll. The cells were resuspended with culture media and seeded into the 96-well plates (6×10^4 cell/well) or 48-well plates (1.2×10^5 cell/well). The PHHs were infected with a D type HBV one day post seeding (day 1).
(§2) On day 2, the test compounds were diluted and added into the cell culture plates. The culture media containing the compounds were refreshed every other day. The cell culture supernatants were collected on day 8 for the HBV DNA and antigen determinations.
(§3) The compounds were tested at 7 concentrations, 3-fold dilution, in triplicate.
(§4) Two compounds were tested at 5×5 matrix, in triplicate plates.
DNA in the culture supernatants harvested on days 8 were isolated with QIAamp 96 DNA Blood Kit (Qiagen-51161). For each sample, 100 μl of the culture supernatants was used to extract DNA. The DNA was eluted with 100 μl, 150 μl or 180 μl of AE. HBV DNA in the culture supernatants was quantified by qPCR. The combination effect was analyzed by the MacSynergy software. The primers are described below.

[3] = tested on: D type HBV in primary human hepatocytes (HBsAg); assay: microbe, parasite or virus in culture; assay type: cell-based; conditions: for AVERAGE % INHIBITION: COMPOUND 22 0 nM
Protocol: as §1, §2, §3, §4
(§5) HBsAg/HBeAg in the culture supernatants harvested on days 8 were measured by the HBsAg/HBeAg ELISA kit (Autobio) according to the manual. The samples were diluted with PBS to get the signal in the range of the standard curve. The inhibition rates were calculated with the formula below. The combination effect was analyzed by the MacSynergy software.
% Inh. HBsAg=[1-HBsAg quantity of sample/HBV quantity of DMSO control]×100.

[4] = tested on: D type HBV in primary human hepatocytes (HBeAg); assay: microbe, parasite or virus in culture; assay type: cell-based
Protocol: as §1, §2, §3, §4, §5
% Inh. HBeAg=[1-HBeAg quantity of sample/HBV quantity of DMSO control]×100.

[5] = tested on: HBV rcDNA in HepDE19 cells; assay: HepDE19 cell culture system, rcDNA quantitation using bDNA assay, MacSynergy II; assay type: cell-based, human hepatoma cell line; conditions: for AVERAGE % INHIBITION: COMPOUND 3 0.000 μM
Protocol: In vitro combination studies were conducted using the method of Prichard and Shipman (Prichard M N, and Shipman C Jr., Antiviral Research, 1990, 14 (4-5), 181-205; and Prichard M N, et. al., MacSynergy II). HepDE19 cell culture system is a HepG2 (human hepatocarcinoma) derived cell line that supports HBV DNA replication and cccDNA formation in a tetracycline (Tet)-regulated manner and produces HBV rcDNA and a detectable reporter molecule dependent on the production and maintenance of cccDNA (Guo et al 2007. J. Virol 81:12472-12484). HepDE19 (50,000 cells/well) were plated in 96 well collagen-coated tissue-culture treated microtiter plates in DMEM/F12 medium supplemented with 10% fetal bovine serum, 1% penicillin-streptomycin and 1 μg/ml tetracycline and incubated in a humidified incubator at 37° C. and 5% CO2 overnight. Next day, the cells were switched to fresh medium without tetracycline and incubated for 4 hrs at 37° C. and 5% CO2. […] The two inhibitors were tested both singly as well as in combinations in a checkerboard fashion such that each concentration of inhibitor A was combined with each concentration of inhibitor B to determine their combination effects on inhibition of rcDNA production. Following a 7 day-incubation of cells with compound combinations, the level of rcDNA present in the inhibitor-treated wells was measured using a Quantigene 2.0 bDNA assay kit (Affymetrix, Santa Clara, Calif.) with HBV specific custom probe set and manufacturers instructions. […] The RLU data from the single compound treated cells were analyzed using XL-Fit module in Microsoft Excel to determine EC50 values using a 4-parameter curve fitting algorithm. Concurrently, the effect of compounds on cell viability was assessed using replicate plates, plated at a density of 5,000 cells/well and incubated for 4 days, to determine the ATP content as a measure of cell viability using the cell-titer glo reagent (CTG; Promega Corporation, Madison, Wis.) as per manufacturer's instructions.
In vitro combination studies were conducted using the method of Prichard and Shipman (Prichard M N, Shipman C, Jr., Antiviral Res, 14, 181-205 (1990)). The HepDE19 cell line was developed as described in Guo et al. (Guo et al., J Virol, 81, 12472-12484 (2007)). It is a human hepatoma cell line stably transfected with the HBV genome, and which can express HBV pregenomic RNA and support HBV rcDNA (relaxed circular DNA) synthesis in a tetracycline-regulated manner. HepDE19 cells were plated in 96 well tissue-culture treated microtiter plates in DMEM/F12 medium supplemented with 10% fetal bovine serum+1% penicillin-streptomycin without tetracycline and incubated in a humidified incubator at 37° C. and 5% CO2 overnight. […] The two inhibitors were tested both singly as well as in combinations in a checkerboard fashion such that each concentration of inhibitor A was combined with each concentration of inhibitor B to determine their combination effects on inhibition of rcDNA production. Following a 48 hour-incubation, the level of rcDNA present in the inhibitor-treated wells was measured using a bDNA assay (Affymetrix) with HBV specific custom probe set and manufacturers instructions. […] Concurrently, the effect of inhibitor combinations on cell viability was assessed using replicate plates that were used to determine the ATP content as a measure of cell viability using the Cell-TiterGlo reagent (Promega) as per manufacturer's instructions.
In vitro combination studies were conducted using the method of Prichard and Shipman (1990) (Prichard M N, Shipman C, Jr. 1990. A three-dimensional model to analyze drug-drug interactions. Antiviral Res 14:181-205 AND Prichard M N. 1992. MacSynergy II, University of Michigan).

[6] = Hepatitis B virus, Hepatocyte, read-out: AVERAGE % […] DNA
[7] = Hepatitis B virus, Hepatocyte, read-out: Inhibitor A EC50
[8] = Hepatitis B virus, Hepatocyte, read-out: Inhibitor EC50
[9] = Hepatitis B virus, Hepatocyte, read-out: AVERAGE % INHIBITION HBsAg
[10] = Hepatitis B virus, HepDE19, read-out: AVERAGE % INHIBITION

10m: siRNA duplex SEQ ID NO: 19 and 20 targeting the HBV genome (chain 1 GCCGAUCCAUACUGCGGAAUU; chain 2 UUCCGCAGUAUGGAUCGGCUU; chain 1: sugars from the 5' end [UNA]rrmrmrrrrrrmmrmmrr[UNA][UNA], backbone not given here; chain 2: sugars from the 5' end rrrrrrrmrrrrmrrrrmr[UNA][UNA], backbone not given here) [Compound 10m]
IC50 [1]: 0.34 nM

5m: siRNA duplex SEQ ID NO: 9 and 10 targeting the HBV genome (chain 1 CCGUGUGCACUUCGCUUCAUU; chain 2 UGAAGCGAAGUGCACACGGUU; chain 1: sugars from the 5' end [UNA]rrrmmrrrrrmrrrmrrrr[UNA], backbone not given here; chain 2: sugars from the 5' end r11 m1 r5 m1 r3, backbone not given here) [Compound 5m]
IC50 [1]: 0.06 nM

12m: siRNA duplex SEQ ID NO: 23 and 24 targeting the HBV genome (chain 1 GCCGAUCCAUACUGCGGAAUU; chain 2 UUCCGCAGUAUGGAUCGGCUU; chain 1: sugars from the 5' end [UNA]rrmrmrrrrrrmmrrmrrr[UNA], backbone not given here; chain 2: sugars from the 5' end rrrrrrrmrrrrmrrrrmrrr, backbone not given here) [Compound 12m]
IC50 [1]: 0.16 nM

13m: siRNA duplex SEQ ID NO: 25 and 26 targeting the HBV genome (chain 1 GCCGAUCCAUACUGCGGAAUU; chain 2 UUCCGCAGUAUGGAUCGGCUU; chain 1: sugars from the 5' end [UNA]rrmrmrrrrrrmmrrmrr[UNA][UNA], backbone not given here; chain 2: sugars from the 5' end rrrrrrrmrrrrmrrrrmr[UNA][UNA], backbone not given here) [Compound 13m]
IC50 [1]: 0.2 nM

6m: siRNA duplex SEQ ID NO: 11 and 12 targeting the HBV genome (chain 1 CUGGCUCAGUUUACUAGUGUU; chain 2 CACUAGUAAACUGAGCCAGUU; chain 1: sugars from the 5' end [UNA]mmmrrrrrrrrrrmrmrrr[UNA], backbone not given here; chain 2: sugars from the 5' end rrrrrmrrrrrrmrmrrrrrr, backbone not given here) [Compound 6m]
IC50 [1]: 0.05 nM

CC(C)OC(=O)[C@H](C)N[P@](=O)(CO[C@H](C)Cn1cnc2c(N)ncnc21)Oc1ccccc1 [TAF, tenofovir alafenamide, reference compound]
inhibition at 50 pM [2, 6]: -8.77%
inhibition at 0.00012 µM [2, 6]: 6.36%
inhibition at 0.00037 µM [2, 6]: 11.6%
inhibition at 0.00041 µM [2, 6]: 28.8%
inhibition at 0.00123 µM [2, 6]: 63.4%
inhibition at 0.00333 µM [2, 6]: 42.6%
inhibition at 0.0037 µM [2, 6]: 78.3%
inhibition at 0.01 µM [2, 6]: 43.3%
EC50 [2, 7]: 0.405 nM
EC50 [2, 8]: 0.405 nM
AVERAGE % INHIBITION ([2]; TAF 0.12 nM): −2.6%
AVERAGE % INHIBITION ([2]; TAF 0.37 nM): −1.92%
AVERAGE % INHIBITION ([2]; TAF 3.33 nM): 40.16%
AVERAGE % INHIBITION ([2]; TAF 10.00 nM): 50.21%
AVERAGE % INHIBITION ([2]; TAF […]): 4.95%
inhibition at 50 pM [3, 9]: -7.35%
inhibition at 0.00012 µM [3, 9]: 23%
inhibition at 0.00014 µM [3, 9]: 12.8%
inhibition at 0.00037 µM [3, 9]: 7.04%
inhibition at 0.00041 µM [3, 9]: 11.3%
inhibition at 0.00123 µM [3, 9]: 11%
inhibition at 0.00333 µM [3, 9]: 16.1%
inhibition at 0.0037 µM [3, 9]: -6.72%
inhibition at 0.01 µM [3, 9]: 6.38%
EC50 [3, 7]: > 100 nM
EC50 [3, 8]: > 100 nM
AVERAGE % INHIBITION ([3]; TAF 0.1234568 nM): 29.82%
AVERAGE % INHIBITION ([3]; TAF 0.3703704 nM): 10.78%
AVERAGE % INHIBITION ([3]; TAF 1.1111111 nM): 20.81%
AVERAGE % INHIBITION ([3]; TAF 3.3333333 nM): 9.06%
AVERAGE % INHIBITION ([3]; TAF 10 nM): 7.97%
EC50 [4, 8]: > 100 nM
AVERAGE % INHIBITION ([4]; TAF 0.05 nM, COMPOUND 3 0.00 nM): 1.17%
AVERAGE % INHIBITION ([4]; TAF 0.12 nM, COMPOUND 22 0 nM): 26.61%
AVERAGE % INHIBITION ([4]; TAF 0.14 nM, COMPOUND 3 0.00 nM): −2.78%
AVERAGE % INHIBITION ([4]; TAF 0.37 nM, COMPOUND 22 0 nM): 9.9%
AVERAGE % INHIBITION ([4]; TAF 0.41 nM, COMPOUND 3 0.00 nM): 1.76%
AVERAGE % INHIBITION ([4]; TAF 1.23 nM, COMPOUND 3 0.00 nM): 9.91%
AVERAGE % INHIBITION ([4]; TAF 3.33 nM, COMPOUND 22 0 nM): 19.69%
AVERAGE % INHIBITION ([4]; TAF 3.70 nM, COMPOUND 3 0.00 nM): 11.87%
AVERAGE % INHIBITION ([4]; TAF 10.00 nM, COMPOUND 22 0 nM): 22.85%
AVERAGE % INHIBITION ([4]; TAF […], COMPOUND 22 0 nM): 22.56%
inhibition at 0.000781 µM [5, 10]: -4.76%
inhibition at 0.001563 µM [5, 10]: 3.49%
inhibition at 0.003125 µM [5, 10]: 0.6%
inhibition at 0.00625 µM [5, 10]: 10.6%
inhibition at 0.0125 µM [5, 10]: 28.6%
inhibition at 0.025 µM [5, 10]: 20%
inhibition at 0.05 µM [5, 10]: 53.2%
inhibition at 0.1 µM [5, 10]: 77.6%
inhibition at 0.2 µM [5, 10]: 89.9%
EC50 ([5]; Hepatitis B virus, HepDE19, read-out: Inhibitor B EC50): 44.5 nM

CCOC(=O)C1=C(CN2CCOCC2)NC(c2nccs2)=NC1c1ccc(F)cc1Br (stereo not shown) [GLS4]
AVERAGE % INHIBITION ([5]; GLS-4 0.008 μM): −1.17%
AVERAGE % INHIBITION ([5]; GLS-4 0.016 μM): −5.82%
AVERAGE % INHIBITION ([5]; GLS-4 0.031 μM): 7.03%
AVERAGE % INHIBITION ([5]; GLS-4 0.063 μM): 38.95%
AVERAGE % INHIBITION ([5]; GLS-4 0.125 μM): 77.82%
AVERAGE % INHIBITION ([5]; GLS-4 0.250 μM): 94.65%
AVERAGE % INHIBITION ([5]; GLS-4 0.500 μM): 97.48%
AVERAGE % INHIBITION ([5]; GLS-4 1.000 μM): 98.51%
AVERAGE % INHIBITION ([5]; GLS-4 2.000 μM): 98.22%
EC50 ([5]; rcDNA, bDNA assay, DE19 cells, read-out: Inhibitor B EC50): 77 nM
